What was measured:
human M3 receptor = human M3 receptor (Homo sapiens, UniProt P20309); test: Reversibility at the human M3 receptor in vitro; format: binding
pre-clinical models = test: Duration of action in vivo when administered directly to the lungs in pre-clinical models
[1] = tested on: healthy volunteers and COPD patients; test: Clinical pharmacology studies, single inhaled doses, plethysmography (sGaw, Raw) and spirometry (FEV1); format: in vivo, human
Procedure: Several clinical pharmacology studies have been conducted using umeclidinium bromide in both healthy volunteers and COPD patients to investigate the safety, tolerability, pharmacokinetics and pharmacodynamics of this compound. The bronchodilatory effects and duration of action of single inhaled doses of this compound as measured by plethysmography (sGaw, Raw) and spirometry (FEV1) were assessed in some of the above noted studies.

subjects with COPD [2] = test: 14-day once-daily dose-ranging study in subjects with COPD; format: in vivo, human
Excerpt: In addition, this study confirmed that umeclidinium bromide has a once-daily profile.

subjects with COPD [3] = test: 28-day once-daily dry powder inhaler study in subjects with COPD; format: in vivo, human; conditions: 125, 250 and 500 mcg once-daily, 28 days
Excerpt: A further study evaluated the efficacy and safety of three doses of umeclidinium (125 mcg, 250 mcg and 500 mcg as umeclidinium bromide) administered once-daily via a dry powder inhaler over a 28 day period in subjects with COPD.

muscarinic receptor = test: Muscarinic receptor antagonism, studies in animal models and in humans

human M3 receptor, sequence (P20309 whole entry): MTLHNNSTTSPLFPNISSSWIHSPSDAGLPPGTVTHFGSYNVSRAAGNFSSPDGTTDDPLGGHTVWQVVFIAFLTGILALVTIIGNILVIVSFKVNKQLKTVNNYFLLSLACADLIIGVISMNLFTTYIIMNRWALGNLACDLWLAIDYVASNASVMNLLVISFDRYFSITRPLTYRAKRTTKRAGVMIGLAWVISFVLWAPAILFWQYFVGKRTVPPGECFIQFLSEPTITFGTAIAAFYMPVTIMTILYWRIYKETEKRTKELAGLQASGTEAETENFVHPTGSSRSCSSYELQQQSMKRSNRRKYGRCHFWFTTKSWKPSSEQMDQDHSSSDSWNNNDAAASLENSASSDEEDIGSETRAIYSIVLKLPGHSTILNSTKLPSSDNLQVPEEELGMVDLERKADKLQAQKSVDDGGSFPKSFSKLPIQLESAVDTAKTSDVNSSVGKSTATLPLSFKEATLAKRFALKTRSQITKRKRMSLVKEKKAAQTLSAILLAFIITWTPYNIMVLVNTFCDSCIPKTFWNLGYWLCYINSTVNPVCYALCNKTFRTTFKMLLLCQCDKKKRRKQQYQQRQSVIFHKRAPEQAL

OC(c1ccccc1)(c1ccccc1)C12CC[N+](CCOCc3ccccc3)(CC1)CC2.[Br-] [umeclidinium bromide, 4-[hydroxy(diphenyl)methyl]-1-{2-[(phenylmethyl)oxy]ethyl}-1-azoniabicyclo[2.2.2]octane bromide]
reversibility at the human M3 receptor (human M3 receptor): slow reversibility | duration of action in vivo (pre-clinical models): long duration of action | bronchodilatory effect [1]: clinically relevant bronchodilation | duration of action [1]: 24 h | improvement in trough FEV1 versus open label tiotropium (18 mcg once-daily) (subjects with COPD [2]; all once-daily doses (62.5-1000 mcg), 14 days): numerically greater improvement | pulmonary function compared to placebo (subjects with COPD [2]; five once-daily doses (62.5, 125, 250, 500, 1000 mcg) over 14 days): statistically significant improvements | bronchodilation (subjects with COPD [3]): maintaining significant bronchodilation over twenty four hours | safety (subjects with COPD [3]): appears to be safe | muscarinic receptor antagonist profile (muscarinic receptor): long acting high-affinity pan-active muscarinic receptor antagonist
